Results: patent US10723727B2, “Tubulysin analogs and methods for their preparation” (priority 2016, dated 2020)
pIC50: −log10 of the molar value.

Target: T1, tubulin/RB3-stathmin-like-domain (RB3-SLD-tdm) complex (Sus scrofa, UniProt P02550+P02554)
T1 construct: purchased Cytoskeleton, Inc. T240; host or cells: RB3-SLD was made in house in E. coli
Assay: Tubulin Peptide-Binding Site Competition Assay (fluorescence polarization)
Parameters: species or system Porcine
Details: FP competition with BODIPY-labeled vinca peptide probe; read after five hours at 22° C.; read-out: Tubulin Peptide-Binding Site Competition Assay IC50
Procedure: Tubulin Peptide-Binding Site Competition Assay
Tubulin binding potency was measured for payloads or cysteine-capped linker-payloads using a fluorescence polarization (FP) competition assay. The binding of a BODIPY-labeled vinca peptide probe (# B31) to a tubulin/RB3-stathmin-like-domain (RB3-SLD-tdm) complex generates a high FP signal, which can be decreased when mixing with test compounds that compete with the FP probe. The order of addition for the reagents in the FP assay was designed to pre-mix the FP probe with various concentrations of the test compound before mixing them with the tubulin/RB3-SLD-dm complex. The final assay concentrations of the probe, tubulin and RB3-SLD-dm were 3, 6, and 100 nM, respectively. IC50 for each test compound is obtained by fitting the dose-dependent FP signal change using GraphPad Prism version 5 software (La Jolla, Calif.) while Ki is converted from the IC50 using the equations described previously (Nikolovska-Coleska et al., 2004). The FP signals were measured on an Infinite M1000 (Tecan, San Jose, Calif.) using ProxiPlate-384 F Plus, Black (Perkin-Elmer, Waltham, Mass., Cat #6008260) with 15 μL of solution per well. Sample dilution and mixing were done using a Beckman Biomek XF (Brea, Calif.). Porcine tubulin was purchased from Cytoskeleton, Inc. (Denver, Colo., Cat #T240) and RB3-SLD was expressed in E. coli. and purified on Q and then Superdex75 columns. The FP assay test for each compound was run in duplicates by mixing 6 μL of solution 1 containing 2.5× test compound (2.5× serial dilution from 7.8 μM maximum concentration, 11 total concentrations) and 7.5 nM of the FP probe in 80 mM PIPES, pH 7.0, 0.02% Tween 20, 2 mM MgCl2, 1 mM EGTA and 3% DMSO with 9 μL of solution 2 containing […] porcine tubulin and 167 nM of RB3-SLD-dm peptide ([…]-[…]) on ProxiPlate-384 micro-plates.

Row | Compound | pIC50
1 | CC[C@H](C)[C@H](NC(=O)[C@@]1(C)CCCN1C)C(=O)N(C)[C@H](C[C@@H](OC(C)=O)c1nc(C(=O)NC2(Cc3ccccc3)CC2)cs1)C(C)C [#B55] | 7.55
2 | CC[C@H](C)[C@H](NC(=O)[C@@]1(C)CCCN1C)C(=O)N(C)[C@H](C[C@@H](OC(C)=O)c1nc(C(=O)NC(Cc2ccccc2)c2ccc(N(C)C)cc2)cs1)C(C)C (stereo partly drawn) [#B66, 1,2-dimethyl-D-prolyl-N-{(1R,3R)-1-(acetyloxy)-1-[4-({1-[4-(dimethylamino)phenyl]-2-phenylethyl}carbamoyl)-1,3-thiazol-2-yl]-4-methylpentan-3-yl}-N-methyl-L-isoleucinamide] | 7.28
3 | CC[C@H](C)[C@H](NC(=O)[C@@]1(C)CCCN1C)C(=O)N(C)[C@H](C[C@@H](OC(C)=O)c1nc(C(=O)NCCn2nc(C)cc2C)cs1)C(C)C [#B42, 1,2-dimethyl-D-prolyl-N-[(1R,3R)-1-(acetyloxy)-1-(4-{[2-(3,5-dimethyl-1H-pyrazol-1-yl)ethyl]carbamoyl}-1,3-thiazol-2-yl)-4-methylpentan-3-yl]-N-methyl-L-isoleucinamide] | 7.56
4 | CC[C@H](C)[C@H](NC(=O)[C@@]1(C)CCCN1C)C(=O)N(C)[C@H](C[C@@H](OC(C)=O)c1nc(C(=O)NCCc2c[nH]cn2)cs1)C(C)C [#B54, 1,2-dimethyl-D-prolyl-N-[(1R,3R)-1-(acetyloxy)-1-(4-{[2-(1H-imidazol-4-yl)ethyl]carbamoyl}-1,3-thiazol-2-yl)-4-methylpentan-3-yl]-N-methyl-L-isoleucinamide] | 7.22
5 | CC[C@H](C)[C@H](NC(=O)[C@@]1(C)CCCN1C)C(=O)N(C)[C@H](C[C@@H](OC(C)=O)c1nc(C(=O)NCCc2cnccn2)cs1)C(C)C [#B68, 1,2-dimethyl-D-prolyl-N-{(1R,3R)-1-(acetyloxy)-4-methyl-1-(4-{[2-(pyrazin-2-yl)ethyl]carbamoyl}-1,3-thiazol-2-yl)pentan-3-yl]-N-methyl-L-isoleucinamide] | 7.07
6 | CCOC(=O)c1ncoc1[C@H](Cc1ccccc1)NC(=O)c1csc([C@@H](C[C@H](C(C)C)N(C)C(=O)[C@@H](NC(=O)[C@@]2(C)CCCN2C)[C@@H](C)CC)OC(C)=O)n1 [#B75, 1,2-dimethyl-D-prolyl-N-{(1R,3R)-1-(acetyloxy)-1-[4-({(1S)-1-[4-(ethoxycarbonyl)-1,3-oxazol-5-yl]-2-phenylethyl}carbamoyl)-1,3-thiazol-2-yl]-4-methylpentan-3-yl}-N-methyl-L-isoleucinamide] | 7.59
7 | CC[C@H](C)[C@H](NC(=O)[C@@]1(C)CCCN1C)C(=O)N(C)[C@H](C[C@@H](OC(C)=O)c1nc(C(=O)NCCN2Cc3ccccc3C2=O)cs1)C(C)C [#B44, 1,2-dimethyl-D-prolyl-N-[(1R,3R)-1-(acetyloxy)-4-methyl-1-(4-{[2-(1-oxo-1,3-dihydro-2H-isoindol-2-yl)ethyl]carbamoyl}-1,3-thiazol-2-yl)pentan-3-yl]-N-methyl-L-isoleucinamide] | 7.32
8 | CC[C@H](C)[C@H](NC(=O)[C@@]1(C)CCCN1C)C(=O)N(C)[C@H](C[C@@H](OC(C)=O)c1nc(C(=O)N[C@@H](Cc2ccccc2)CN2CCOCC2)cs1)C(C)C [#B72, 1,2-dimethyl-D-prolyl-N-[(1R,3R)-1-(acetyloxy)-4-methyl-1-(4-{[(2S)-1-(morpholin-4-yl)-3-phenylpropan-2-yl]carbamoyl}-1,3-thiazol-2-yl)pentan-3-yl]-N-methyl-L-isoleucinamide] | 7.48
9 | CC[C@H](C)[C@H](NC(=O)[C@@]1(C)CCCN1C)C(=O)N(C)[C@H](C[C@@H](OC(C)=O)c1nc(C(=O)NCCN2CCOC2=O)cs1)C(C)C [#B64, 1,2-dimethyl-D-prolyl-N-[(1R,3R)-1-(acetyloxy)-4-methyl-1-(4-{[2-(2-oxo-1,3-oxazolidin-3-yl)ethyl]carbamoyl}-1,3-thiazol-2-yl)pentan-3-yl]-N-methyl-L-isoleucinamide] | 7.14
10 | CC[C@H](C)[C@H](NC(=O)[C@@]1(C)CCCN1C)C(=O)N(C)[C@H](C[C@@H](OC(C)=O)c1nc(C(=O)NC2(c3ccccc3)CC2)cs1)C(C)C [#B52, 1,2-dimethyl-D-prolyl-N-[(1R,3R)-1-(acetyloxy)-4-methyl-1-{4-[(1-phenylcyclopropyl)carbamoyl]-1,3-thiazol-2-yl}pentan-3-yl]-N-methyl-L-isoleucinamide] | 7.21
11 | CC[C@H](C)[C@H](NC(=O)[C@@]1(C)CCCN1C)C(=O)N(C)[C@H](C[C@@H](OC(C)=O)c1nc(C(=O)NC2(c3ccccn3)CC2)cs1)C(C)C [#B63] | 6.98
12 | CC[C@H](C)[C@H](NC(=O)[C@@]1(C)CCCN1C)C(=O)N(C)[C@H](C[C@@H](OC(C)=O)c1nc(C(=O)NCC2(c3ccccc3)CCN(C)CC2)cs1)C(C)C [#B65, 1,2-dimethyl-D-prolyl-N-[(1R,3R)-1-(acetyloxy)-4-methyl-1-(4-{[(1-methyl-4-phenylpiperidin-4-yl)methyl]carbamoyl}-1,3-thiazol-2-yl)pentan-3-yl]-N-methyl-L-isoleucinamide] | 7.47
13 | CC[C@H](C)[C@H](NC(=O)[C@@]1(C)CCCN1C)C(=O)N(C)[C@H](C[C@@H](OC(C)=O)c1nc(C(=O)NCCc2c[nH]c3ccccc23)cs1)C(C)C [#B59, 1,2-dimethyl-D-prolyl-N-[(1R,3R)-1-(acetyloxy)-1-(4-{[2-(1H-indol-3-yl)ethyl]carbamoyl}-1,3-thiazol-2-yl)-4-methylpentan-3-yl]-N-methyl-L-isoleucinamide] | 7.19
14 | CC[C@H](C)[C@H](NC(=O)C(C)(C)N(C)C)C(=O)N(C)[C@H](C[C@@H](OC(C)=O)c1nc(C(=O)N[C@@H](Cc2ccccc2)C[C@H](C)C(=O)OC)cs1)C(C)C [#B34, N,N,-2-trimethylalanyl-N-[(1R,3R)-1-(acetyloxy)-1-(4-{[(2R,4S)-5-methoxy-4-methyl-5-oxo-1-phenylpentan-2-yl]carbamoyl}-1,3-thiazol-2-yl)-4-methylpentan-3-yl]-N-methyl-L-isoleucinamide] | 7.61
15 | CC[C@H](C)[C@H](NC(=O)[C@@]1(C)CCCN1C)C(=O)N(C)[C@H](C[C@@H](OC(C)=O)c1nc(C(=O)NCCN2CCCC2=O)cs1)C(C)C [#B73, 1,2-dimethyl-D-prolyl-N-[(1R,3R)-1-(acetyloxy)-4-methyl-1-(4-{[2-(2-oxopyrrolidin-1-yl)ethyl]carbamoyl}-1,3-thiazol-2-yl)pentan-3-yl]-N-methyl-L-isoleucinamide] | 7.07
16 | CC[C@H](C)[C@H](NC(=O)[C@@]1(C)CCCN1C)C(=O)N(C)[C@H](C[C@@H](OC(C)=O)c1nc(C(=O)NCCn2cccn2)cs1)C(C)C [#B56, 1,2-dimethyl-D-prolyl-N-[(1R,3R)-1-(acetyloxy)-4-methyl-1-(4-{[2-(1H-pyrazol-1-yl)ethyl]carbamoyl}-1,3-thiazol-2-yl)pentan-3-yl]-N-methyl-L-isoleucinamide] | 7.47
17 | CC[C@H](C)[C@H](NC(=O)[C@@]1(C)CCCN1C)C(=O)N(C)[C@H](C[C@@H](OC(C)=O)c1nc(C(=O)NC(Cc2ccccc2)c2ccccc2)cs1)C(C)C (stereo partly drawn) [#B74, 1,2-dimethyl-D-prolyl-N-[(1R,3R)-1-(acetyloxy)-1-{4-[(1,2-diphenylethyl)carbamoyl]-1,3-thiazol-2-yl}-4-methylpentan-3-yl]-N-methyl-L-isoleucinamide] | 7.05
18 | CC[C@H](C)[C@H](NC(=O)[C@@]1(C)CCCN1C)C(=O)N(C)[C@H](C[C@@H](OC(C)=O)c1nc(C(=O)NCCc2cccc3ccccc23)cs1)C(C)C [#B70, 1,2-dimethyl-D-prolyl-N-[(1R,3R)-1-(acetyloxy)-4-methyl-1-(4-{[2-(naphthalen-1-yl)ethyl]carbamoyl}-1,3-thiazol-2-yl)pentan-3-yl]-N-methyl-L-isoleucinamide] | 7.25
19 | CC[C@H](C)[C@H](NC(=O)[C@@]1(C)CCCN1C)C(=O)N(C)[C@H](C[C@@H](OC(C)=O)c1nc(C(=O)NCCc2cnn(C)c2)cs1)C(C)C [#B77, 1,2-dimethyl-D-prolyl-N-[(1R,3R)-1-(acetyloxy)-4-methyl-1-(4-{[2-(1-methyl-1H-pyrazol-4-yl)ethyl]carbamoyl}-1,3-thiazol-2-yl)pentan-3-yl]-N-methyl-L-isoleucinamide] | 6.60
20 | CC[C@H](C)[C@H](NC(=O)[C@@]1(C)CCCN1C)C(=O)N(C)[C@H](C[C@@H](OC(C)=O)c1nc(C(=O)NCCC2CCCCC2)cs1)C(C)C [#B49, 1,2-dimethyl-D-prolyl-N-[(1R,3R)-1-(acetyloxy)-1-{4-[(2-cyclohexylethyl)carbamoyl]-1,3-thiazol-2-yl}-4-methylpentan-3-yl]-N-methyl-L-isoleucinamide] | 6.89
